Paper PMC8079033, “Design, synthesis, anticancer evaluation, and molecular modelling studies of novel tolmetin derivatives as potential VEGFR-2 inhibitors and apoptosis inducers” (Journal of Enzyme Inhibition and Medicinal Chemistry, 2021)

Tests used:
SF-539 = experiment: NCI 60-cell line one-dose antiproliferative screen (SRB); format: cell-based; settings: Homo sapiens, read-out: growth inhibition % (GI%)
Description: (§1) Anticancer activity screening of the newly synthesised compounds was measured in vitro utilising 60 different human tumour cell lines provided by US National Cancer Institute according to previously reported standard procedure[41–43] as follows: Cells are inoculated into 96-well microtiter plates in 100 ml. After cell inoculation, the microtiter plates are incubated at 37 °C, 5% CO2, 95% air, and 100% relative humidity for 24 h prior to addition of experimental compounds. After 24 h, two plates of each cell line are fixed in situ with TCA, to represent a measurement of the cell population for each cell line at the time of compound addition (Tz). Experimental compounds are solubilised in dimethyl sulfoxide at 400-fold the desired final maximum test concentration and stored frozen prior to use. At the time of compound addition, an aliquot of frozen concentrate is thawed and diluted to twice the desired final maximum test concentration with a complete medium containing […] gentamicin. Aliquots of […] of the compounds dilutions are added to the appropriate microtiter wells already containing 100 ml of medium, resulting in the required final compound concentration. Following compound addition, the plates are incubated for an additional 48 h at 37 °C, 5% CO2, 95% air, and 100% relative humidity. For adherent cells, the assay is terminated by the addition of cold trichloroacetic acid (TCA). Cells are fixed in situ by the gentle addition of 50 ml of cold 50% (w/v) TCA (final concentration, 10% TCA) and incubated for […] at 4 °C. The supernatant is discarded, and the plates are washed five times with tap water and air-dried. Sulforhodamine B (SRB) solution (100 ml) at 0.4% (w/v) in 1% acetic acid is added to each well, and plates are incubated for 10 min at room temperature. After staining, the unbound dye is removed by washing five times with 1% acetic acid and the plates are air-dried. The bound stain is subsequently solubilised with a 10 mM trizma base, and the absorbance is read on an automated plate reader at a wavelength of 515 nm. For suspension cells, the methodology is the same except that the assay is terminated by fixing settled cells at the bottom of the wells by gently adding 50 ml of 80% TCA (final concentration, 16% TCA). Using the absorbance measurements [time zero, (Tz), control growth, (C), and test growth in the presence of compound (Ti)], the percentage growth is calculated for each compound. The One-dose data are reported as a mean graph of the percent growth of treated cells. The reported number is growth relative to the no-compound control, and relative to the time zero number of cells. This allows the detection of both growth inhibition and lethality.
(§2) Fifteen newly synthesised compounds were tested for their in vitro antiproliferative activity by the National Cancer Institute (NCI), Maryland, USA[50], under the Developmental Therapeutic Program (DTP)[41]^,[43]^,[51]^,[52]. The tested compounds were evaluated at a concentration of 10 µM on a panel of 60 tumour cell lines representing leukaemia and non-small cell lung, colon, CNS, melanoma, ovarian, renal, prostate, and breast cancers. The antiproliferative activity was presented by the NCI as percent growth of the treated cells and is presented in Table 1 as growth inhibition percentage (GI%) achieved by the tested compounds.

IGROV1 = experiment: as above; format: cell-based; settings: Homo sapiens, IGROV-1, read-out: growth inhibition % (GI%)
Description: as §1, §2

CAKI-1 = experiment: as above; format: cell-based; settings: Homo sapiens, read-out: growth inhibition % (GI%)
Description: as §1, §2

RPMI-8226 = experiment: as above; format: cell-based; settings: Homo sapiens, read-out: growth inhibition % (GI%)
Description: as §1, §2

EKVX = experiment: as above; format: cell-based; settings: Homo sapiens, read-out: growth inhibition % (GI%)
Description: as §1, §2

MDA-MB-231/ATCC = experiment: as above; format: cell-based; settings: Homo sapiens, read-out: growth inhibition % (GI%)
Description: as §1, §2

HCT-15 = experiment: as above; format: cell-based; settings: Homo sapiens, read-out: growth inhibition % (GI%)
Description: as §1, §2

MOLT-4 = experiment: as above; format: cell-based; settings: Homo sapiens, read-out: growth inhibition % (GI%)
Description: as §1, §2

HS 578 T = experiment: as above; format: cell-based; settings: Homo sapiens, read-out: growth inhibition % (GI%)
Description: as §1, §2

UO-31 = experiment: as above; format: cell-based; settings: Homo sapiens, read-out: growth inhibition % (GI%)
Description: as §1, §2

OVCAR-5 = experiment: as above; format: cell-based; settings: Homo sapiens, read-out: growth inhibition % (GI%)
Description: as §1, §2

SNB-19 = experiment: as above; format: cell-based; settings: Homo sapiens, read-out: growth inhibition % (GI%)
Description: as §1, §2

SK-MEL-5 = experiment: as above; format: cell-based; settings: Homo sapiens, read-out: growth inhibition % (GI%)
Description: as §1, §2

SF-268 = experiment: as above; format: cell-based; settings: Homo sapiens, read-out: growth inhibition % (GI%)
Description: as §1, §2

OVCAR-4 = experiment: as above; format: cell-based; settings: Homo sapiens, read-out: growth inhibition % (GI%)
Description: as §1, §2

SW-620 = experiment: as above; format: cell-based; settings: Homo sapiens, read-out: growth inhibition % (GI%)
Description: as §1, §2

UACC-257 = experiment: as above; format: cell-based; settings: Homo sapiens, read-out: growth inhibition % (GI%)
Description: as §1, §2

OVCAR-8 = experiment: as above; format: cell-based; settings: Homo sapiens, read-out: growth inhibition % (GI%)
Description: as §1, §2

K-562 = experiment: as above; format: cell-based; settings: Homo sapiens, K562, read-out: growth inhibition % (GI%)
Description: as §1, §2

T-47D = experiment: as above; format: cell-based; settings: Homo sapiens, T47D, read-out: growth inhibition % (GI%)
Description: as §1, §2

SNB-75 = experiment: as above; format: cell-based; settings: Homo sapiens, read-out: growth inhibition % (GI%)
Description: as §1, §2

A549/ATCC = experiment: as above; format: cell-based; settings: Homo sapiens, read-out: growth inhibition % (GI%)
Description: as §1, §2

PC-3 = experiment: as above; format: cell-based; settings: Homo sapiens, read-out: growth inhibition % (GI%)
Description: as §1, §2

HOP-62 = experiment: as above; format: cell-based; settings: Homo sapiens, read-out: growth inhibition % (GI%)
Description: as §1, §2

HOP-92 = experiment: as above; format: cell-based; settings: Homo sapiens, read-out: growth inhibition % (GI%)
Description: as §1, §2

NCI-H226 = experiment: as above; format: cell-based; settings: Homo sapiens, read-out: growth inhibition % (GI%)
Description: as §1, §2

UACC-62 = experiment: as above; format: cell-based; settings: Homo sapiens, read-out: growth inhibition % (GI%)
Description: as §1, §2

HCC-2998 = experiment: as above; format: cell-based; settings: Homo sapiens, read-out: growth inhibition % (GI%)
Description: as §1, §2

A498 = experiment: as above; format: cell-based; settings: Homo sapiens, read-out: growth inhibition % (GI%)
Description: as §1, §2

SN 12 C = experiment: as above; format: cell-based; settings: Homo sapiens, SN12C, read-out: growth inhibition % (GI%)
Description: as §1, §2

NCI-H23 = experiment: as above; format: cell-based; settings: Homo sapiens, read-out: growth inhibition % (GI%)
Description: as §1, §2

ACHN = experiment: as above; format: cell-based; settings: Homo sapiens, read-out: growth inhibition % (GI%)
Description: as §1, §2

MCF7 = experiment: as above; format: cell-based; settings: Homo sapiens, read-out: growth inhibition % (GI%)
Description: as §1, §2

NCI-H522 = experiment: as above; format: cell-based; settings: Homo sapiens, read-out: growth inhibition % (GI%)
Description: as §1, §2

HCT-116 = experiment: as above; format: cell-based; settings: Homo sapiens, read-out: growth inhibition % (GI%)
Description: as §1, §2

U251 = experiment: as above; format: cell-based; settings: Homo sapiens, U-251, read-out: growth inhibition % (GI%)
Description: as §1, §2

LOX IMVI = experiment: as above; format: cell-based; settings: Homo sapiens, read-out: growth inhibition % (GI%)
Description: as §1, §2

BT-5 = experiment: as above; format: cell-based; settings: Homo sapiens, read-out: growth inhibition % (GI%)
Description: as §1, §2

- melting point: 245 to 247 °C
Structure (SMILES): Cc1ccc(C(=O)c2ccc(CC(=O)NNC(=O)Nc3c(Cl)cccc3Cl)n2C)cc1 [Compound 8a, N-(2,6-Dichlorophenyl)-2–(2-(1-methyl-5–(4-methylbenzoyl)-1H-pyrrol-2-yl)acetyl) hydrazinecarboxamide]
- inhibition at 10 µM (SF-539): < 10%
- inhibition at 10 µM (IGROV1): 14%
- inhibition at 10 µM (CAKI-1): 14.9%
- inhibition at 10 µM (RPMI-8226): < 10%
- inhibition at 10 µM (EKVX): < 10%
- inhibition at 10 µM (MDA-MB-231/ATCC): < 10%
- inhibition at 10 µM (HCT-15): < 10%
- inhibition at 10 µM (MOLT-4): < 10%
- inhibition at 10 µM (HS 578 T): < 10%
- inhibition at 10 µM (UO-31): 31.1%
- inhibition at 10 µM (OVCAR-5): < 10%
- inhibition at 10 µM (SNB-19): 17.7%
- inhibition at 10 µM (SK-MEL-5): < 10%
- inhibition at 10 µM (SF-268): < 10%
- inhibition at 10 µM (OVCAR-4): 16%
- inhibition at 10 µM (SW-620): < 10%
- inhibition at 10 µM (UACC-257): < 10%
- inhibition at 10 µM (OVCAR-8): < 10%
- inhibition at 10 µM (K-562): < 10%
- inhibition at 10 µM (T-47D): 18%
- inhibition at 10 µM (SNB-75): 28.1%
- inhibition at 10 µM (A549/ATCC): < 10%
- inhibition at 10 µM (PC-3): 10.5%
- inhibition at 10 µM (HOP-62): 11.4%
- inhibition at 10 µM (HOP-92): < 10%
- inhibition at 10 µM (NCI-H226): < 10%
- inhibition at 10 µM (UACC-62): 11.1%
- inhibition at 10 µM (HCC-2998): < 10%
- inhibition at 10 µM (A498): < 10%
- inhibition at 10 µM (SN 12 C): < 10%
- inhibition at 10 µM (NCI-H23): < 10%
- inhibition at 10 µM (ACHN): < 10%
- inhibition at 10 µM (MCF7): 10%
- inhibition at 10 µM (NCI-H522): 15.9%
- inhibition at 10 µM (HCT-116): < 10%
- inhibition at 10 µM (U251): 11.7%
- inhibition at 10 µM (LOX IMVI): < 10%
- inhibition at 10 µM (BT-5): < 10%
